Experimental data published in patent US20070254055A1, “Therapeutic Avenanthramide Compounds” (TRUSTEES OF TUFTS COLLEGE, priority 2003, published 2007).

Columns and labels:
Assay type in all cases: cell-based, rat
[1] = tested on: pRb; test: pRb phosphorylation Western blot, FBS-stimulated A10 cells; details: 10% FBS, 20 h
Description: (§1) Protein from 5×10^4 cells was subjected to electrophoresis on 7.5-10% SDS-polyacrylamide gels and electro-transferred to nirocellulose membrane. Nonspecific binding was blocked by incubating with Tris-buffered saline (TBS) [137 mM NaCl, and 15 mM Tris-HCl (pH 7.6)] containing 5% non-fat milk (w/v) for 1 h at room temperature and then probed with primary antibody against p53, p21, p27, cyclin D1 and pRb overnight. After washing in TBS-Tween 20 buffer (0.075% v/v), the membranes were incubated with horseradish peroxidase-conjugated anti-IgG antibody. Proteins bound to the primary antibodies were detected with ECL detection reagents.
Based on the above findings that treatment of A10 cells with Avn arrests the cell cycle at G1 phase, the effect of Avn treatment on cell cycle regulatory molecules involved in G1 phase of the cell cycle progression were analyzed. pRB, the product of the retinoblastoma tumor suppressor gene, is a major cell cycle regulator and its hyperphosphorylation (ppRb) is necessary for G1-S phase transition. To elucidate the mechanism by which Avn inhibits the cell cycle progression, the changes in pRB phosphorylation status were measured using anti-phospho-pRb specific antibody. FIG. 11 is a Western blot showing the effects of Avn on pRB phosphorylation. Av inhibits pRb phosphorylation in A10 cells stimulated with FBS. […]

[2] = tested on: A10 SMC; test: Cell cycle distribution by flow cytometry, A10 cells; details: 120 μM, 48 h
Description: At 50% confluence (exponentially growing phase), A10 cells were seeded into 100 mm culture dishes and were treated with different concentrations of Avn for 48 h. Cells were then harvested by trypsin/EDTA treatment, washed with PBS and fixed with 70% ethanol at 4° C. for 1 hr. Prior to analysis, cells were washed again with PBS and stained with 1.0 mL of propidium iodide (PI) solution containing 25 μg/mL PI and 10 μg/mL RNase in PBS at 4° C. for 30 min in the dark. Cell cycle distributions were then analyzed by flow cytometry using the fluorescence-activated cell sorting (FACS) analysis. To calculate percentage of cells in respective phases of the cell cycle the DNA content frequency histograms were deconvoluted. Based on the DNA content, the cell cycle can be distinguished from G1 to S and G2-M phase.

[3] = tested on: p53; test: p53 protein level Western blot, A10 cells
Description: as §1
Induction of the tumor suppressor p53 has been implicated in the control of cell growth of SMC, and some antioxidants in green tea or red wine can increase the p53 protein expression level. Therefore, the effect of substantially purified Avn-C treatment on p53 protein levels was explored. A10 cells were seeded into 100 mm Petri dishes and grown in 10% FBS culture medium until 70% confluence. Cells were either left untreated or treated with different concentrations of Avn (0-120 uM), and the cells were harvested after 24 h. Whole cell lysates were prepared and subjected to Western blot analysis for p53 and β-actin levels.

[4] = tested on: p53; test: Half life of p53 protein, cycloheximide chase, A10 cells
Description: At 80% confluence, A10 cells seeded into 100 mm culture dishes and were treated with different concentrations of Av (0, 40, 80 and 120 μM) for 24 h. Following Avn treatment, the total cell extracts were harvested with 2× protein sample buffer [0.14 M Tris/HCl (pH 6.8), 22.4% glycerol, 6% SDS, 0.02% […], and 10% β-mercaptoethanol] by scraping the cells. The genomic DNA is sheared by passing through a 21-gauge syringe several times. The homogenized cell lysates were boiled for 5 min and centriftiged at 12,000 rpm for 5 min. Protein half life studies are performed as described before. Briefly, cells were treated with Avn for 4-6 h. […] Cells were harvested in 2× protein sample buffer at 0, 30, 60 and 120 min after cycloheximide addition. Protein samples were analyzed by Western blot.
P53 protein level is mainly regulated at a posttranslational level, usually via control of protein stability. To determine whether increased protein stability might play a role in the increased p53 levels induced by Avn treatment observed in this study, the change in half life of p53 protein in Avn-treated and nontreated cells was explored. […] Whole cell extract was prepared at different time points (0, 30 and 60 min.) and p53 protein levels were measured by Western blot. […]

O=C(/C=C/c1ccc(O)c(O)c1)Nc1ccc(O)cc1C(=O)O [Avn-C, Avenanthramide C]
expression of the total amount of pRb [1]: did not change
serum-induced pRB phosphorylation ([1]; different concentrations): dose-dependently inhibited
population of cells in G0/G1-phase ([2]; growing cells (control 49.7%)): 66.9%
population of cells in S-phase ([2]; growing cells (control about 40%)): 25.7%
increase of p53 protein level [3]: up to 3 fold
p53 protein levels ([3]; 0-120 uM, 24 h): dose-dependent increase
p53 protein remaining after 1 h of cycloheximide treatment ([4]; 80 uM for 6 h, then 15 μg/mL cycloheximide): More than half
half-life of p53 ([4]; A10 cells (untreated about 20 min)): more than 1 h
